In patent publication US20100184790A1, “PYRROLO[2,3-B]PYRIDINE COMPOUNDS, AZAINDOLE COMPOUNDS USED FOR SYNTHESIZING SAID PYRROLO[2,3-B]PYRIDINE COMPOUNDS, METHODS FOR THE PRODUCTION THEREOF, AND USES THEREOF” (CENTRE NATIONAL DE LA RECHERCHE SCIENTIFIQUE, priority 2007, published 2010):
Read-outs that look alike come from different tables or passages of the source.

Assays:
GSK-3α/β = GSK-3α/β kinase assay (GS-1 peptide); type: biochemical, porcine; details: 15 μM ATP, 30° C.
Procedure: After incubating at 30° C. for 30 (thirty) minutes, the 25 μl aliquots of the supernatant were treated as described above.

CK1δ/ε = CK1δ/ε kinase assay (CK1-specific peptide); type: biochemical, porcine; details: 15 μM ATP, 30° C.
Procedure: CK1δ/ε was purified from porcine brain by affinity chromatography on an immobilized axin fragment. It was assayed as described for CDK1 but using a CK1-specific peptide substrate.

DYRK1A = DYRK1A (Rattus norvegicus, UniProt Q63470); experiment: DYRK1A kinase assay (myelin basic protein); type: biochemical
SH-SY5Y cells = experiment: Cell survival, MTS reduction, SH-SY5Y; type: cell-based; details: Homo sapiens, Table 2, exposed for 24 hours, read-out: IC50 survival of SH-SY5Y cells (MTS reduction)
Procedure: The human neuroblastoma cell line SH-SY5Y was grown in a DMEM medium with L-glutamine originating from Invitrogen (Cergy Pontoise, France), antibiotics and 10% by volume of FCS originating from Invitrogen. […] These compounds were also tested at various concentrations with regard to their effects on SH-SY5Y and HEK293 cells. […] The IC50 values were calculated from the dose-response curves and are given in micromoles (mean±standard deviation of two independent measurements carried out in triplicate). […] The survival of the cells was estimated by the assaying of the degree of reduction of MTS induced by this exposure. […] The ICS© values were calculated from dose-response curves and are given in micromoles in table 3 below.

CDK1/cyclin B = CDK1/cyclin B kinase assay (histone H1, [γ-33P]-ATP); details: read-out: IC50 CDK1/cyclin B, 15 μM ATP, 30° C.
CDK2/cyclin A = molecular target: T1, CDK2/cyclin A (Homo sapiens, UniProt P24941); experiment: CDK2/cyclin A kinase assay; type: biochemical; details: 15 μM ATP, 30° C., histone H1; read-out: IC50 CDK2/cyclinA
T1 construct: made in house; host or cells: insect cells
Procedure: CDK2/cyclin A (human, recombinant, expressed in insect cells) was assayed as described for CDK1/cyclin B.

CDK5/p25 = CDK5/p25 (Homo sapiens, UniProt Q00535); experiment: CDK5/p25 kinase assay; type: biochemical, mammalian
Procedure: CDK5/p25 was reconstituted by mixing equal amounts of recombinant mammalian CDK5 and p25 expressed in E. coli as GST (glutathione S-transferase) fusion protein and purified by affinity chromatography on glutathione-agarose (vectors provided by Doctor L. H. Tsai) (p25 is a truncated version of p35, the 35-kDa CDK5 activator). Its activity was assayed with histone H1 in buffer C as described for CDK1/cyclin B.

CDK9/cyclin T = molecular target: T2, CDK9/cyclin T (Homo sapiens, UniProt P50750); experiment: CDK9/cyclin T kinase assay; type: biochemical; details: 15 μM ATP, 30° C., pRB fragment
T2 construct: made in house; host or cells: insect cells

[1] = 15 μM ATP, 30° C., myelin basic protein, read-out: IC50 DYRK1A
[2] = 15 μM ATP, 30° C., histone H1, read-out: IC50 CDK5/p25

Sequence of CDK5/p25 (Q00535 whole entry, species assumed, the tested form may be a part): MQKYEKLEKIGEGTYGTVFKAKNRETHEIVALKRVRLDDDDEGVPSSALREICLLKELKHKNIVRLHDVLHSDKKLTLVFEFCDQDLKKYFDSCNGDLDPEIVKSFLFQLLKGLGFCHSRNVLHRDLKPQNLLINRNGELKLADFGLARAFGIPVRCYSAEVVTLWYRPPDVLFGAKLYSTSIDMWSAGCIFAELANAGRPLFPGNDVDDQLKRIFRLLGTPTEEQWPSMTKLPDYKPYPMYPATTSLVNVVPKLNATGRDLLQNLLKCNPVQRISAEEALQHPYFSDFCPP
Sequence of CDK5/p25 (Q15078 99-307 partner limits assumed, species assumed): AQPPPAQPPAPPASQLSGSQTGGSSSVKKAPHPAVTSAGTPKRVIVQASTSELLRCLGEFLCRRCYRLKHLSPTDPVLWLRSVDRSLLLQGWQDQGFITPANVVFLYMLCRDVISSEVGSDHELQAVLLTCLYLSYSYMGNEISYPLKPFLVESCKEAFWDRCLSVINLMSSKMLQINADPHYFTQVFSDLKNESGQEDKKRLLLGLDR
T2 sequence (P50750 whole entry, the tested form may be a part): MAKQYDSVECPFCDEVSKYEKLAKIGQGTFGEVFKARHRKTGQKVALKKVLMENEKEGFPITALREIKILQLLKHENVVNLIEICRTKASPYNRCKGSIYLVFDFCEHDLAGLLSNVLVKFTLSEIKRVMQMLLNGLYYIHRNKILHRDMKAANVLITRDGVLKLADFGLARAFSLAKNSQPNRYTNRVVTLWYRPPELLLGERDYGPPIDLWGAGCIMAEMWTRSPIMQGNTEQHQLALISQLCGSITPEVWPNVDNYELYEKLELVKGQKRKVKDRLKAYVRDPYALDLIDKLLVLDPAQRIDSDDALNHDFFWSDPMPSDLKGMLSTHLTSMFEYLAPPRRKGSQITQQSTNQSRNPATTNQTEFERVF
T2 sequence (O60563 whole entry partner, the tested form may be a part): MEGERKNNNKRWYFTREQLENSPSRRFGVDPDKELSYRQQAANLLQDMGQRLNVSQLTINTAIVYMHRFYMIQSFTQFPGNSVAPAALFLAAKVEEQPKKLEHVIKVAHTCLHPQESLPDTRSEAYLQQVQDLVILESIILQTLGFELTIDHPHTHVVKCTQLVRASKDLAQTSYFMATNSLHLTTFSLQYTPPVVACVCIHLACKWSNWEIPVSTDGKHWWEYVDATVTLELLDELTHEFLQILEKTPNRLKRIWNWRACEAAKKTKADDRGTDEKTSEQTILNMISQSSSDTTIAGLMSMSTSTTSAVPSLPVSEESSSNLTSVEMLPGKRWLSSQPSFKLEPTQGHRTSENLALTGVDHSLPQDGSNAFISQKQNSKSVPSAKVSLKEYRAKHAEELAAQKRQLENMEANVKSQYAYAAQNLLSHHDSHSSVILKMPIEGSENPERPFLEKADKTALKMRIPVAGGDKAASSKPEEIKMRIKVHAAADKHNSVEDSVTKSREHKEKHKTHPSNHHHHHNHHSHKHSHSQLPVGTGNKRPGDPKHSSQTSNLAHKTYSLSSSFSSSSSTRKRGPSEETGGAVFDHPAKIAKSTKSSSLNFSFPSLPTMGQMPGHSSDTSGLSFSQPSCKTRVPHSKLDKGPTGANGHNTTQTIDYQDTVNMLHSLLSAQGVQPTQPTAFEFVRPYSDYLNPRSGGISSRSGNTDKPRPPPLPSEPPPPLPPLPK

Compound	IC50 (GSK-3α/β) [nM]	IC50 (CK1δ/ε) [nM]	IC50 (DYRK1A; [1]) [nM]	IC50 (CDK1/cyclin B) [nM]	melting point [°C]	IC50 (CDK2/cyclin A) [nM]	IC50 (CDK5/p25; [2]) [nM]	IC50 (SH-SY5Y cells) [nM]	IC50 (CDK9/cyclin T) [nM]	IC50 (CDK5/p25) [nM]	IC50 (DYRK1A) [nM]
CC(C)Oc1ccnc2[nH]cc(-c3ccnc(N)n3)c12 [Meriolin 6, 3-[(2-amino)pyrimidin-4-yl]-4-(1-methylethoxy)-1H-pyrrolo[2,3-b]pyridine]	21	140		8							
COCCOc1ccnc2[nH]cc(-c3ccnc(N)n3)c12 [Meriolin 7, 3-(2-aminopyrimidin-4-yl)-4-(2-methoxyethoxyl)-1H-pyrrolo[2,3-b]pyridine]	63000	100000		35000		> 10000		> 100000			
Cn1cc(-c2ccnc(N)n2)c2c(O)ccnc21 [Meriolin 8, 3-[(2-amino)pyrimidin-4-yl]-4-hydroxy-1-methyl-1H-pyrrolo[2,3-b]pyridine]	4600	2300	1200	1200				> 30000			
Nc1nccc(-c2c[nH]c3nccc(Cl)c23)n1 [Meriolin 10, 3-[(2-amino)pyrimidin-4-yl]-4-chloro-1H-pyrrolo[2,3-b]pyridine]	2000	3000	130	240				1920			
Oc1ccnc2[nH]cc(-c3ccncn3)c12 [Meriolin 13, 3-(pyrimidin-4-yl)-4-hydroxy-1H-pyrrolo[2,3-b]pyridine]	1800							28000			
Nc1nccc(-c2c[nH]c3nccc(OCC4CCCCC4)c23)n1 [Meriolin 16, 3-[(2-amino)pyrimidin-4-yl]-4-(cyclohexylmethoxy)-1H-pyrrolo[2,3-b]pyridine]	6	> 100	45	2.2	> 210	1.2	3	22			
Nc1nccc(-c2c[nH]c3nccc(OC4CCCCC4)c23)n1 [Meriolin 17, 3-[(2-amino)pyrimidin-4-yl]-4-(cyclohexyloxy)-1H-pyrrolo[2,3-b]pyridine]	4.1	> 100	26	2.9	> 210	2.1	2.1	27			
CCCC#Cc1ccnc2[nH]cc(-c3ccnc(N)n3)c12 [Meriolin 18, 3-[(2-amino)pyrimidin-4-yl]-4-(pent-1-ynyl)-1H-pyrrolo[2,3-b]pyridine]	82	1300	20	11		5	4.5	100			
Nc1nccc(-c2c[nH]c3nccc(C#Cc4ccccc4)c23)n1 [Meriolin 21, 3-[(2-amino)pyrimidin-4-yl]-4-(phenyleth-1-ynyl)-1H-pyrrolo[2,3-b]pyridine]					> 210						
Nc1nccc(-c2c[nH]c3nccc(CCc4ccccc4)c23)n1 [Meriolin 22, 3-[(2-amino)pyrimidin-4-yl]-4-phenethyl-1H-pyrrolo[2,3-b]pyridine]	800		73	200	196 to 198	73	130	2400			
Nc1nccc(-c2c[nH]c3nccc(-c4ccccc4)c23)n1 [Meriolin 23, 3-[(2-amino)pyrimidin-4-yl]-4-phenyl-1H-pyrrolo[2,3-b]pyridine]	80		50	10	> 210	9	7	88			
Nc1nccc(-c2c3c(O)ccnc3n3c(N)nccc23)n1 [Variolin B, reference compound]	70	5		60		80		240	26	90	80

Continued, in another order:

IC50 (GSK-3α/β) [nM]	IC50 (CK1δ/ε) [nM]	IC50 (DYRK1A; [1]) [nM]	IC50 (CDK1/cyclin B) [nM]	melting point [°C]	IC50 (CDK2/cyclin A) [nM]	IC50 (CDK5/p25; [2]) [nM]	Compound	IC50 (SH-SY5Y cells) [nM]	IC50 (CDK9/cyclin T) [nM]	IC50 (CDK5/p25) [nM]	IC50 (DYRK1A) [nM]
30	100	32	10				CCOc1ccnc2[nH]cc(-c3ccnc(N)n3)c12 [Meriolin 4, 3-[(2-amino)pyrimidin-4-yl]-4-ethoxy-1H-pyrrolo[2,3-b]pyridine]	81			
				> 210			COc1cc(Br)nc2[nH]cc(-c3ccnc(N)n3)c12 [Meriolin 4n, 3-[(2-amino)pyrimidin-4-yl]-6-bromo-4-methoxy-1H-pyrrolo[2,3-b]pyridine]				
25	200	37	7				CCCOc1ccnc2[nH]cc(-c3ccnc(N)n3)c12 [Meriolin 5, 3-[(2-amino)pyrimidin-4-yl]-4-propoxy-1H-pyrrolo[2,3-b]pyridine]	26			
			25000				COc1ccnc2c1c(-c1ccnc(N)n1)cn2C [Meriolin 9, 3-[(2-amino)pyrimidin-4-yl]-4-methoxy-1-methyl-1H-pyrrolo[2,3-b]pyridine]				
7000	600	1000	1800				COc1ccnc2[nH]cc(-c3ccnc(SC)n3)c12 [Meriolin 12, 4-methoxy-3-[2-(methylsulfanyl)pyrimidin-4-yl]-1H-pyrrolo[2,3-b]pyridine, reference compound]	> 100000			
1100	600	230	1300				COc1ccnc2[nH]cc(-c3ccncn3)c12 [Meriolin 14, 4-methoxy-3-(pyrimidin-4-yl)-1H-pyrrolo[2,3-b]pyridine]	10200			
3.3	130	40	2.3	> 210	1.6	2	Nc1nccc(-c2c[nH]c3nccc(OCc4ccccc4)c23)n1 [Meriolin 15, 3-[(2-amino)pyrimidin-4-yl]-4-(benzyloxy)-1H-pyrrolo[2,3-b]pyridine]	13	7.2		
1750	8100	56	350	> 210	195	200	CCCCCc1ccnc2[nH]cc(-c3ccnc(N)n3)c12 [Meriolin 19, 3-[(2-amino)pyrimidin-4-yl]-4-pentyl-1H-pyrrolo[2,3-b]pyridine]	13000			
